Patent publication US5869490A, “Azaheterocyclymethyl derivatives of 2,3,8,9-tetrahydro-7h-1,4-dioxino (2,3-e) indol-8-one” (American Home Products Corporation, priority 1997, dated 1999)
Like-named read-outs stand apart in the source and are kept apart here.

Biological target: T1, dopamine D2 receptor (Rattus norvegicus, UniProt P61169)
T1 construct: homogenized rat striatal brain tissue; from tissue; host or cells: rat striatum homogenate
Experiment: Affinity for the dopamine D2 receptor (3H-quinpirole, rat striatal homogenate)
Type: binding
Method: Affinity for the dopamine D2 receptor was established by a modification of the standard experimental test procedure of Seemen and Schaus, European Journal of Pharmacology 203: 105-109, 1991, wherein homogenized rat striatal brain tissue is incubated with ^3 H-quinpirole and various concentrations of test compound, filtered and washed and counted in a Betaplate scintillation counter.

[1] = rat striatal brain tissue homogenate, 3H-quinpirole, read-out: D2 Receptor Affinity (IC50 (nM))

T1 sequence (P61169 whole entry): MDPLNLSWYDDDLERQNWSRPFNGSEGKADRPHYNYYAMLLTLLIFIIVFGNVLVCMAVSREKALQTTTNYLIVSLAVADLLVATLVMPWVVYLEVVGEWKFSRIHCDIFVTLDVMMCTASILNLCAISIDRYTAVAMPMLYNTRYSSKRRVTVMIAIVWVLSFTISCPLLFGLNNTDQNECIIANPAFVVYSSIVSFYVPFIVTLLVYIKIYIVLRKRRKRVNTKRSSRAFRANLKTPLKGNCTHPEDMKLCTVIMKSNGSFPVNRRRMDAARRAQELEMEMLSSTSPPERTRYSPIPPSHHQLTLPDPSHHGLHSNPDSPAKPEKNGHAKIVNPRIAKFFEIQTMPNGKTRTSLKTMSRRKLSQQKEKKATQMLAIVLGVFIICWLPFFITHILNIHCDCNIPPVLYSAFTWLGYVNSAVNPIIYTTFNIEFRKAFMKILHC

IC50 [1] [nM] | SMILES | IC50 [nM]
 | O=C1Cc2c(ccc3c2O[C@@H](CN2CCC4(CC2)C(=O)NCN4c2ccccc2)CO3)N1 [Example 3, 2-(4-Oxo-1-phenyl-1,3,8-triaza-spiro[4,5]dec-8-ylmethyl)-2,3,8,9-tetrahydro-7H-1,4-dioxino-[2,3-e]indol-8-one] | 3.2
4.06 | O=C1Cc2c(ccc3c2O[C@@H](CN2CCN(c4cccc5[nH]ccc45)CC2)CO3)N1 [Example 6, 2-[4-(1H-Indol-4-yl)-piperazin-1-ylmethyl]-2,3,8,9-tetrahydro-7H-1.4-dioxino[2.3-e]indol-8-one] | 
0.23 | O=C1Cc2c(c(F)cc3c2O[C@@H](CN2CCc4ccccc4C2)CO3)N1 [Example 7, 2-(3,4-Dihydro-1H-isoguinolin-2-ylmethyl)-6-fluoro-2,3,8,9-tetrahydro-7H-1,4-dioxino[2,3-e]indol-8-one] | 
 | O=C1Cc2c(ccc3c2O[C@@H](CN2CCC(n4c(=O)[nH]c5ccccc54)CC2)CO3)N1 [Example 4, 2-[4-(2-Oxo-2,3-dihydro-benzimidazol-1-yl)-piperidin-1-ylmethyl]-2,3,8,9-tetrahydro-7H-1,4-dioxino[2,3-e]indol-8-one] | 4.08
 | O=C1Cc2c(ccc3c2O[C@@H](CN2CC=C(c4ccccc4)CC2)CO3)N1 [Example 5, 2-(4-Phenyl-3,6-dihydro-2H-pyridin-1-ylmethyl)-2,3,8,9-tetrahydro-7H-1,4-dioxino[2,3-e]indol-8-one] | 1.2
0.73 | O=C1Cc2c(ccc3c2O[C@@H](CN2CCC(C(=O)c4ccc(F)cc4)CC2)CO3)N1 [Example 2, 2-(4-(4-Fluoro-benzoyl)-piperidin-1-ylmethyl]-2,3,8,9-tetrahydro-7H-1,4-dioxino[2,3-e]indol-8-one] | 
0.35 | O=C1Cc2c(ccc3c2O[C@@H](CN2CCc4ccccc4C2)CO3)N1 [Example 1, 2-(3,4-Dihydro-1H-isoguinolin-2-ylmethyl)-2,3,8,9-tetrahydro-7H-1,4-dioxino[2,3-e]indol-8-one] | 
